Values of other authors in publication PMC11859340, “The Therapeutic Potential of Spirooxindoles in Cancer: A Focus on p53–MDM2 Modulation” (Pharmaceuticals, 2025).
Where two headings read alike, the source gives them in different places. Values belong to the molecule of their own block, whether it stands above or below them.

Tests used:
[1] = test system: HCT116 p53^+/+; parameters: method as in PMID 28800455; settings: read-out: IC50 against HCT116 p53^+/+
[2] = test system: HCT116 p53^−/−; parameters: method as in PMID 28800455; settings: read-out: IC50 against HCT116 p53^−/−
[3] = test system: HepG2 (hepatocellular wild p53 type); parameters: method as in PMID 24268795; settings: read-out: GI50 against HepG2
[4] = test system: HCT116 (p53^+/+); parameters: method as in PMID 24268795; settings: read-out: GI50 against HCT116 (p53^+/+)
[5] = test system: HCT116 (p53^−/−); parameters: method as in PMID 24268795; settings: read-out: GI50 against HCT116 (p53^−/−)
[6] = test system: SW620 (mutant p53); parameters: method as in PMID 24268795; settings: read-out: GI50 against SW620
[7] = test system: MDA-MB-231; parameters: method as in doi:10.3390/separations10040225; settings: MTT; read-out: IC50 against MDA-MB-231
[8] = test system: PC3; parameters: method as in doi:10.3390/separations10040225; settings: MTT; read-out: IC50 against PC3
[9] = target: MDM2; parameters: method as in doi:10.3390/separations10040225; settings: MST; read-out: KD, MST binding affinity for MDM2
[10] = test system: MD-MB-231; parameters: method as in PMID 25618595; settings: MTT; read-out: IC50 against MD-MB-231
[11] = test system: MCF7; parameters: method as in PMID 25618595; settings: MTT; read-out: IC50 against MCF7
[12] = test system: HEK-293; parameters: method as in PMID 25618595; settings: human kidney normal cell line; read-out: IC50 against HEK-293
[13] = test system: VERO; parameters: method as in PMID 25618595; settings: monkey kidney normal cell line; read-out: IC50 against VERO
[14] = test system: tumor growth; parameters: method as in PMID 25618595; settings: 20 mg/kg body weight over 14 days
[15] = test system: HCT116^+/+; parameters: method as in PMID 34946727; settings: MTT; read-out: CC50 against HCT116^+/+
[16] = test system: HCT116^−/−; parameters: method as in PMID 34946727; settings: MTT; read-out: CC50 against HCT116^−/−
[17] = test system: osteosarcoma, acute leukemia, prostate, colon, and dedifferentiated liposarcoma cancers; settings: mouse xenograft models
[18] = test system: HCT116 (p53^+/+); parameters: method as in doi:10.1039/C5MD00450K; settings: read-out: GI50 against HCT116 (p53^+/+)
[19] = test system: HCT116 (p53^−/−); parameters: method as in doi:10.1039/C5MD00450K; settings: read-out: GI50 against HCT116 (p53^−/−)
[20] = test system: HepG2 (liver, wild p53 type); parameters: method as in doi:10.1039/C5MD00450K; settings: read-out: GI50 against HepG2
[21] = test system: SW620 (colon, mutant p53); parameters: method as in doi:10.1039/C5MD00450K; settings: read-out: GI50 against SW620
[22] = test system: MCF7 “wild p53”; parameters: method as in PMID 37731691; settings: MTT; read-out: IC50 against MCF7
[23] = test system: MDA-MB-231 “mutant p53”; parameters: method as in PMID 37731691; settings: MTT; read-out: IC50 against MDA-MB-231
[24] = test system: MCF 10A; parameters: method as in PMID 37731691; settings: MTT; read-out: IC50 against MCF 10A

IC50 [1]: 13.1 ± 1 µM
IC50 [2]: 14.2 ± 0.8 µM
SMILES: O=C1Nc2ccc(Br)cc2[C@]12[C@@H](c1ccccc1)C(c1ccccc1)=NN2c1ccccc1 [97 (R = 5-Br, R^1 = R^3 = H, R^2 = Ph)]

GI50 [3]: 29.1 ± 1.09 µM
GI50 [4]: 26.6 ± 1.07 µM
GI50 [5]: 30.6 ± 1.12 µM
GI50 [6]: 31.6 ± 1.05 µM
SMILES: Cc1ccc(C2=NO[C@@]3(C(=O)Nc4cc(Cl)ccc43)[C@@H]2c2ccccc2)cc1

SMILES: O=C(c1nc2ccccc2[nH]1)[C@H]1[C@H](c2ccc(Cl)cc2)C2CC3CCCCC3N2[C@]12C(=O)Nc1ccc(Cl)cc12 (stereo partly drawn) [39 (R = 4-ClC6H4)]
IC50 [7]: 4.76 ± 0.069 µM
IC50 [8]: 4.574 ± 0.011 µM
Kd [9]: 2.38 µM

IC50 [11]: 6.5 µM
IC50 [12]: > 50 µM
IC50 [13]: > 50 µM
SMILES: O=C(c1ccc(OCCN2CCCCC2)cc1)C1[C@H](c2ccccc2)[C@@H](c2ccccc2)NC12C(=O)Nc1ccc(Cl)cc12 (stereo partly drawn)
IC50 [10]: 3.7 µM
tumor growth compared to the untreated control group [14]: reduction in tumor growth

SMILES: COc1ccc(N2C(=O)[C@@]3(CN(C)C[C@@]34C(=O)Nc3ccc(Cl)cc34)NC2=S)cc1 [84 (X = S, R = Cl, R’ = 4-MeOC6H4)]
CC50 [15]: 1.95 ± 0.43 µM
CC50 [16]: 2.35 ± 0.95 µM

SMILES: CC(C)(C)C[C@@H]1N[C@@H](C(=O)N[C@H]2CC[C@H](O)CC2)[C@H](c2cccc(Cl)c2F)[C@]12C(=O)Nc1cc(Cl)ccc12 [SAR405838]
cancer inhibition [17]: recognizable or complete cancer inhibition

GI50 [18]: 2 µM
GI50 [19]: 2.9 ± 0.2 µM
GI50 [20]: 2.1 µM
GI50 [21]: 2.1 ± 0.3 µM
SMILES: O=C1Nc2ccc(Br)cc2[C@]12ON=C(c1cccc(Cl)c1)N2c1cccc(Cl)c1 [110 (R^1 = 5-Br, R^2 = 3-Cl, R^3 = 3-Cl)]

SMILES: O=C1C=CC(OCc2cn(CCN3C(=O)[C@]4(c5ccc(Br)cc53)[C@@H](c3ccccc3)C(c3ccccc3)=NN4c3ccccc3)nn2)(c2cc(=O)c3c(O)cc(O)cc3o2)C=C1 [105 (X = (CH2)2)]
IC50 [22]: 2.92 µM
IC50 [23]: 1.08 µM
IC50 [24]: 4.56 µM
